In US7718703B2, “Norvaline derivative and method for preparation thereof” (Mitsubishi Tanabe Pharma Corporation, priority 2006, dated 2010):

Columns and labels:
[1] = target: T1, human GlyT2 (Homo sapiens, UniProt Q9Y345); test: Glycine uptake assay (GlyT2 assay); format: cell-based; details: HEK 293 cells stably transfected with human GlyT2; 14C-glycine 10 μM; room temperature 2-3 hours
T1 construct: expressed in transfected cells
T1 sequence (Q9Y345 1-797): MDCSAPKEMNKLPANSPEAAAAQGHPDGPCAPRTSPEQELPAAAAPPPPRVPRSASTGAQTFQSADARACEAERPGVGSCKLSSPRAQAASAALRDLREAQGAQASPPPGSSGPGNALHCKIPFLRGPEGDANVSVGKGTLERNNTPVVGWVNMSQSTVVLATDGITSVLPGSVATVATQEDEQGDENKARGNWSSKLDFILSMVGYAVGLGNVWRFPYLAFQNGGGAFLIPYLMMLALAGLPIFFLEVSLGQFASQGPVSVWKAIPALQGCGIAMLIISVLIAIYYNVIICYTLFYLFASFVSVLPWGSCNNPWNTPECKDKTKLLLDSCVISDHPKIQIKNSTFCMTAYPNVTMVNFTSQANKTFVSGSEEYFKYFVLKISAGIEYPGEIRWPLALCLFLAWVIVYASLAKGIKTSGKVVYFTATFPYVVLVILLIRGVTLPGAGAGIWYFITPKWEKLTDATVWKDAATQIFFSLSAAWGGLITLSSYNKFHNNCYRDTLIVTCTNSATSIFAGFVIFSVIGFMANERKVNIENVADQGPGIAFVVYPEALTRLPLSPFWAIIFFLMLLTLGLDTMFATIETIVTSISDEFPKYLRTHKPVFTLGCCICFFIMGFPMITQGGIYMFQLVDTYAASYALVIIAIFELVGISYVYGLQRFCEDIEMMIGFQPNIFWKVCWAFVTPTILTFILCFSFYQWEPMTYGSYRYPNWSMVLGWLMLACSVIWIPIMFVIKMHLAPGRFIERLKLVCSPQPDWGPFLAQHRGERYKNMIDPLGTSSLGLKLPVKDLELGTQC
Description: Experiment 1 Glycine uptake assay (GlyT2 and GlyT1 assay)
Inhibitory activity on GlyT2 and GlyT1 was examined by glycine uptake assays using cells expressing GlyT2 or GlyT1, as described in the literatures, Caulfield et al. (J. Med. Chem., 2001, 44, 2679-2682), Williams et al. (Anal. Biochem., 2003, 321, 31-37, etc.), and/or Morrow et al. (FEBS Letters, 1998, 439: 334-340).
Briefly, the assays were performed as follows.
HEK 293 cells stably transfected with either human GlyT2 or human GlyT1b were used. The cells were grown in 96-well Cytostar-T™ scintillating microplates (20,000-40,000 cells/well) overnight before removal of culture medium and addition of HEPES buffered saline containing glycine (10 μM) labeled with ^14C and varying concentrations of test compounds.
Plates were incubated at room temperature for 2-3 hours, and then, the plates were counted in a plate counter.
Data were analyzed by the sigmoid dose-response curve fitting to produce IC50 (the concentration of test compound producing 50% inhibition) values.

SMILES	melting point	IC50 [1]
CCCCCCOc1ccc(C(=O)N[C@@H](CCC)C(=O)NCCN(C)C)cc1 [Example 1.001, N-[(1S)-1-[[[2-(dimethylamino)ethyl]amino]carbonyl]butyl]-4-(hexyloxy)benzamide]	103 to 104 °C	–
CCC[C@H](NC(=O)c1cc(OC)c(OCc2ccccc2)c(OC)c1)C(=O)NCC1(N(C)C)CCCC1 [Example 1.026]	–	< 10 nM
